These results are taken from patent publication US20250248980A1, “IMMUNE MODULATORY AGENTS” (PRESIDENT AND FELLOWS OF HARVARD COLLEGE, priority 2022, published 2025).

Entries after “also recorded” stand apart in the source; their conditions may differ. Like-named read-outs stand apart in the source and are kept apart here.

What all share (assay type): cell-based
In test [1] the target is T1, TNF-a receptor (TNF-R1 reporter cells) (Homo sapiens, UniProt P19438).
T1 construct: expressed in transfected cells; development described in WO2022125865A2
Briefly: TNF-a-receptor GFP reporter cell screen. To be noted: for specificity for TNF-a-receptor reporter over other cytokine receptor reporters: in words; for IC50 / Emax: reducing TNF-a-receptor reporter activities; for IC50: GFP percentage by microscope, 48 hours; for Emax: maximal effect at high compound concentrations, read-out: Emax. The protocol:
(§1) FIG. 5 is a dot plot showing the identification of small-molecule compounds that reduce IL-17A or TNF-a receptor activities. Small-molecule screens were performed with 114,665 compounds. Individual compounds were added to IL-17A-reporters or TNF-a-reporters following the addition of respective ligands such as IL-17A or TNF-a (25 ng/ml). The reporter cells were then incubated for additional 48 hours before subjecting them for microscopic analyses (GFP percentage was measured by microscope). Anti-IL17A and anti-TNFa antibodies were used as the positive controls.
The IL-17RA/IL-17RC reporter system was used to identify the IL-17a-specific immune modulatory agents, as described herein (see e.g., compounds (1)-(16)). Furthermore, the IL-17A systems and methods were applied to generate other cytokine/cytokine receptor reporter system (tTA fused onto one receptor subunit via a protease cleavage site, TEV fused to another receptor subunit, optimal linkers inserted between different proteins to ensure high signal-to-background ratio; e.g., for identifying TNF-α-specific immune modulatory agents). The screening platform provided herein was used to identify immune modulatory agents including, but not limited to, small molecules and proteins that modulate IL-17A or TNF-α cytokine signaling.
(§2) Two thousand reporter cells per well (384-well plates) were seeded in 30 ul cell culture medium with either IL-17A (25 ng/ml, unless otherwise indicated) or TNFa ligand (25 ng/ml, unless otherwise indicated); additional screens were performed with IL-17A at 7.5 ng/ml. Then 100 nl of the individual compound was added by a pin transfer and cultured for two days in a CO2 incubator. For the cell viability test, 10 ul HOECHST 33342 was added and incubated for 10 min, followed by the addition of 10 ul 4% PFA. After a 10 min incubation, the reporter cells were washed twice with phosphate-buffered saline (PBS) and kept in 30 ul PBS. The images were acquired and analyzed using an IMAGEXPRESS confocal microscope. For storage, plates were sealed with black light-absorbing films.

In test [2] the test system is TNF-a downstream genes. The experiment in a line: TNF-a-dependent gene expression in three cell lines (RT-qPCR, secondary assays, FIG. 12). To be noted: 10 μM compound, 5 ng/ml TNF-a, 24 hours, THP-1, 293T, HepG2 cells. On the procedure: (§3) THP-1 (FIG. 12A), 293T (FIG. 12B), and HepG2 (FIG. 12C) cells were cultured and stimulated with 5 ng/ml TNF-a for 24 hours. During the treatment, 10 μM of each compound was added. RT-qPCR was used to analyze the expression levels of selected TNF-a downstream genes (IL1b, CCL4 and CXCL1 in THP-1 cells in FIG. 12A; IL18, VCAM, and CXCL10 in 293T cells in FIG. 12B; and IL18, CXCL1, and CXCL5 in HepG2 cells in FIG. 12C).

The test system of test [3] is TNF-a downstream genes in THP-1 cells. The experiment in a line: TNF-a-dependent gene expression in THP-1 cells (RT-qPCR, FIG. 12A). To be noted: 10 μM compound, 5 ng/ml TNF-a, 24 hours; IL1b, CCL4, CXCL1. On the procedure:
as §3
On the technique in general: Real-time PCR tracks product formation cycle by cycle.

Test [4] relates to TNF-a downstream genes in 293T cells. Briefly: TNF-a-dependent gene expression in 293T cells (RT-qPCR, FIG. 12B). To be noted: 10 μM compound, 5 ng/ml TNF-a, 24 hours; IL18, VCAM, CXCL10. On the procedure:
as §3

In test [5] the test system is TNF-a downstream genes in HepG2 cells. Briefly: TNF-a-dependent gene expression in HepG2 cells (RT-qPCR, FIG. 12C). To be noted: 10 μM compound, 5 ng/ml TNF-a, 24 hours; IL18, CXCL1, CXCL5. The protocol:
as §3

For test [6], the target named is T2, IL-17 receptor (the IL-17RA-IL-17RC heterodimer) (Mus musculus, UniProt Q60943+Q8K4C2, F156E).
T2 sequence (Q60943 32-358): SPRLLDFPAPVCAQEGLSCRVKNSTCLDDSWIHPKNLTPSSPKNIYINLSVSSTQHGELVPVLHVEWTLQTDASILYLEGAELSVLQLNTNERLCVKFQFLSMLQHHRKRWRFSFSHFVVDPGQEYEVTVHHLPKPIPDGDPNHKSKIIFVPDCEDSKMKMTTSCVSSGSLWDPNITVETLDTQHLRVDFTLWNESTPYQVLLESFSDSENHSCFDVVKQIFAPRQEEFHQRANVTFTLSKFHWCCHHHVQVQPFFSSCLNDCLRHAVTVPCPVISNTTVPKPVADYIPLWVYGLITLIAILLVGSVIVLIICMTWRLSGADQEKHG
T2 sequence (Q8K4C2 22-500 F156E): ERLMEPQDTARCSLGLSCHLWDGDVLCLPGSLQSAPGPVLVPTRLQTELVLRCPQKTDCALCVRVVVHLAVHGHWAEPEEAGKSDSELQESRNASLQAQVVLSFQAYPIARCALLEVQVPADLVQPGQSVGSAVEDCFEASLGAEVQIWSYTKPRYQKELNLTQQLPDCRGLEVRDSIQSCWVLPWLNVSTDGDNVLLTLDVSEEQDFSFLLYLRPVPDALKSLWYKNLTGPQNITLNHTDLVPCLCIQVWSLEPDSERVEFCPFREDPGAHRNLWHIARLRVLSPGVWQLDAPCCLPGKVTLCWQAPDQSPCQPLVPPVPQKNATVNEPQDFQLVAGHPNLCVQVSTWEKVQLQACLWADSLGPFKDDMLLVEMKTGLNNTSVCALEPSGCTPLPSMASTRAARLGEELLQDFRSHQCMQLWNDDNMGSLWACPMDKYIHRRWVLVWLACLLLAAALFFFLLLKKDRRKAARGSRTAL
T2 sequence (Q62386 26-158 partner): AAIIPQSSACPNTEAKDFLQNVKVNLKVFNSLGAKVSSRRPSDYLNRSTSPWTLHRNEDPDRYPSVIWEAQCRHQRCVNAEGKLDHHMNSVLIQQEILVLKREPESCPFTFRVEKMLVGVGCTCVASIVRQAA
Briefly: IL-17A-receptor (IL-17RA/IL-17RC) GFP reporter cell screen. To be noted: for Emax: maximal effect at high compound concentrations. On the procedure: as §1
To identify small molecule compounds that control IL-17R activity, a screening platform was used to monitor IL-17a binding to its receptor. Upon IL-17a binding to its receptor subunit A (IL-17RA), another receptor subunit IL-17RC is recruited, and these two subunits form a heterodimer. In the exemplary reporter system, a transcription factor (tTA) was tethered, via a protease cleavage site, to IL-17RA. In addition, a tobacco etch virus (TEV) protease was fused to the receptor subunit IL-17RC. Upon the IL-17a-dependent recruitment of IL-17RC-TEV to IL-17RA-tTA, the tTA is cleaved off from its membrane anchor IL-17RA. The released tTA then enters the nucleus and activates the reporter gene (e.g., in this case, GFP). The IL-17RA/RC reporter system responds highly selectively to IL-17a, but not to other related IL-17 family cytokines (except IL-17f).
as §2

Test [7] relates to IL17A-dependent gene expression in mouse keratinocytes. The experiment in a line: IL17A-dependent gene expression in mouse keratinocytes (RT-qPCR, secondary assay, FIG. 11). To be noted: 10 μM compound, 5 ng/ml IL17A, 24 hours. On the procedure: Mouse keratinocytes were cultured and stimulated with 5 ng/ml IL17A for 24 hours. During the treatment, 10 μM of each compound was added, and reverse transcription-quantitative polymerase chain reaction (RT-qPCR) was used for the gene expression level analyses of the following genes: cxcl1, cxcl2, cxcl5, 24p3, zc3h12a, S100a8, and S100a9. The top-down order of the treatment conditions indicated in the legend correspond to the left-right order of the bars for each gene. […] Compounds C770-0711 (2), C770-0720 (3), 60546479 (6), C881-0413 (9), and LAS 51593897 (11) are also of interest (see grey boxes).

One may read the IC50 as the concentration that inhibits the measured activity by half. Usually Emax stands for the maximal effect, on the per cent scale that the assay sets. Regarding `O=C(CSc1c2c(nc3ccccc13)CCC2)Nc1ccc(F)cc1` [Compound 39], in test [1], the “specificity for TNF-a-receptor reporter over other cytokine receptor reporters” value is on record as “reduce TNF-a-, not IL-17A-, receptor reporter activities”; the IC50 stood at 8.91 µM; the Emax turned out to be 78%. Besides, the “effect on TNF-a-dependent gene expression” value in test [2] is “inhibitory effects against some of TNF-a downstream genes; also recorded: robust inhibitory effects”.

For the compound `CC(C)CCN1C2CCNc3ccccc3CN(C(=O)CCCn3cncn3)CC1CC2` (racemic) [Compound 43], the “effect on TNF-a-dependent gene expression” value in test [2] is recorded as “inhibitory effects against some of TNF-a downstream genes”.

Consider `O=c1ccc(-c2ccccc2)nn1Cc1c(F)cccc1Cl` [Compound 19], for which, in test [1], the “specificity for TNF-a-receptor reporter over other cytokine receptor reporters” value is on record as “reduce TNF-a-, not IL-17A-, receptor reporter activities”; the half-inhibitory concentration (IC50) amounted to 7.46 µM; the maximal effect (Emax) is 98%. Moreover, in test [2], the “effect on TNF-a-dependent gene expression” value was “inhibitory effects against some of TNF-a downstream genes”. Besides, in test [3], the “effect on TNF-a-dependent gene expression in THP-1 cells” value was “robust inhibitory effects”. Further, in test [4], the “effect on TNF-a-dependent gene expression in 293T cells” value is reported as “enhanced effects”. The “effect on TNF-a-dependent gene expression in HepG2 cells” value in test [5] is reported as “enhanced effects”.

With `CCOc1ccc(S(=O)(=O)c2c(C(=O)c3ccc(C)c(C)c3)cnc3ccccc23)cc1` [Compound 2], in test [6] (reducing IL-17A-receptor reporter activities, GFP percentage by microscope, 48 hours), the midpoint of inhibition, the IC50, lay at 31.4 µM. For the same compound, in test [6] (reducing IL-17A-receptor reporter activities), the maximal effect (Emax) is given as 82%. Moreover, the “effect on IL17A-dependent gene expression” value in test [7] is reported as “inhibitory activities”.

For `CCOC(=O)c1ccc(NC(=O)CCc2c(C)nc3c(c(C)nn3C)c2C)cc1` [Compound 8], the “specificity for IL-17A-receptor reporter over other cytokine receptor reporters” value in test [6] (in words) was “reduce IL-17A-, not TNF-a-, receptor reporter activities”. In addition, in test [6] (reducing IL-17A-receptor reporter activities, read-out: Emax), the maximal response (Emax) stood at 94%. In addition, the “effect on IL17A-dependent gene expression” value in test [7] was “inhibitory activities; also recorded: robust inhibitory effects”.

For the compound `CC(=O)N1CCCN(S(C)(=O)=O)CCN(Cc2cccc(F)c2O)Cc2ccccc21` [Compound 15], the “effect on TNF-a-dependent gene expression” value in test [2] is “inhibitory effects against some of TNF-a downstream genes”.
